Tests used:
Format in all cases: biochemical
[1] = target: human JAK1 (a.a. 837-1142); experiment: In vitro JAK kinase assay (HTRF, phosphorylation of a biotinylated peptide), JAK1; conditions: ratio of JAK2 IC50 to JAK1 IC50, measured at 1 mM ATP
Procedure: (§1) Compounds herein were tested for inhibitory activity of JAK targets according to the following in vitro assay described in Park et al., Analytical Biochemistry 1999, 269, 94-104. The catalytic domains of human JAK1 (a.a. 837-1142), Jak2 (a.a. 828-1132) and Jak3 (a.a. 781-1124) with an N-terminal His tag were expressed using baculovirus in insect cells and purified. The catalytic activity of JAK1, JAK2 or JAK3 was assayed by measuring the phosphorylation of a biotinylated peptide. The phosphorylated peptide was detected by homogenous time resolved fluorescence (HTRF). […] Reactions were carried out at room temperature for 1 hr and then stopped with 20 μL 45 mM EDTA, 300 nM SA-APC, 6 nM Eu-Py20 in assay buffer (Perkin Elmer, Boston, Mass.). Binding to the Europium labeled antibody took place for 40 minutes and HTRF signal was measured on a Fusion plate reader (Perkin Elmer, Boston, Mass.).

[2] = target: human JAK1 (a.a. 837-1142) (Homo sapiens, UniProt P23458); experiment: as above; conditions: measured at 1 mM ATP
Procedure: as §1

Jak2 (a.a. 828-1132) = Jak2 (a.a. 828-1132) (Homo sapiens (Human), UniProt O60674); experiment: In vitro JAK kinase assay (HTRF, phosphorylation of a biotinylated peptide), JAK2; conditions: measured at 1 mM ATP
Sequence of Jak2 (a.a. 828-1132) (O60674 828-1132): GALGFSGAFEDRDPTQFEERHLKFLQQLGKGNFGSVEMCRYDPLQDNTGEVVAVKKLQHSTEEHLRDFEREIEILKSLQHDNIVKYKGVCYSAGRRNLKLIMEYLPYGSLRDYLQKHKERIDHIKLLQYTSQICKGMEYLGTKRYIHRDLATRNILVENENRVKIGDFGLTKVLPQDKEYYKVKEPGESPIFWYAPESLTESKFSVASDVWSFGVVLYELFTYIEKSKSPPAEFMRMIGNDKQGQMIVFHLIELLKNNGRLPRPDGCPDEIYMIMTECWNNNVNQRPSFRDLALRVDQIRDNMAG
Procedure: as §1

| Compound | IC50 Ratio JAK2/JAK1 [1] | IC50 [2] [nM] | IC50 (Jak2 (a.a. 828-1132)) [nM] |
| --- | --- | --- | --- |
| N#CCC1(n2cc(-c3ncnc4[nH]ccc34)cn2)CN(C2CCN(Cc3cc4ccccc4o3)CC2)C1 [Example 232, {1-[1-(1-benzofuran-2-ylmethyl)piperidin-4-yl]-3-[4-(7H-pyrrolo[2,3-d]pyrimidin-4-yl)-1H-pyrazol-1-yl]azetidin-3-yl}acetonitrile] | 0.7 | 5 to 20 | ≤ 10 |
| N#CCC1(n2cc(-c3ncnc4[nH]ccc34)cn2)CN(C2CCN(C(=O)Nc3c(Cl)cccc3Cl)CC2)C1 [Example 160, 4-{3-(cyanomethyl)-3-[4-(7H-pyrrolo[2,3-d]pyrimidin-4-yl)-1H-pyrazol-1-yl]azetidin-1-yl}-N-(2,6-dichlorophenyl)piperidine-1-carboxamide] | 12.1 | ≤ 5 | 10 to 50 |
| N#CCC1(n2cc(-c3ncnc4[nH]ccc34)cn2)CN(C2CCN(C(=O)c3cccc(C#N)c3)CC2)C1 [Example 11, 3-[(4-{3-(cyanomethyl)-3-[4-(7H-pyrrolo[2,3-d]pyrimidin-4-yl)-1H-pyrazol-1-yl]azetidin-1-yl}piperidin-1-yl)carbonyl]benzonitrile] | 7.2 | 5 to 20 | 10 to 50 |
| N#CCC1(n2ccc(-c3ncnc4[nH]ccc34)c2)CN(C2CCN(C(=O)c3c(F)cc(C#N)cc3F)CC2)C1 [Example 265, 4-[(4-{3-(cyanomethyl)-3-[3-(7H-pyrrolo[2,3-d]pyrimidin-4-yl)-1H-pyrrol-1-yl]azetidin-1-yl}piperidin-1-yl)carbonyl]-3,5-difluorobenzonitrile] | 6.6 | 5 to 20 | 50 to 100 |
| N#CCC1(n2cc(-c3ncnc4[nH]ccc34)cn2)CN(C2CCN(C(=O)c3c(F)cncc3F)CC2)C1 [Example 61, {1-[1-(3,5-difluoroisonicotinoyl)piperidin-4-yl]-3-[4-(7H-pyrrolo[2,3-d]pyrimidin-4-yl)-1H-pyrazol-1-yl]azetidin-3-yl}acetonitrile] | 4.2 | 5 to 20 | 10 to 50 |
| N#CCC1(n2cc(-c3ncnc4[nH]ccc34)cn2)CN(C2CCN(C(=O)Nc3cccc(C(F)(F)F)c3)CC2)C1 [Example 166, 4-{3-(cyanomethyl)-3-[4-(7H-pyrrolo[2,3-d]pyrimidin-4-yl)-1H-pyrazol-1-yl]azetidin-1-yl}-N-[3-(trifluoromethyl)phenyl]piperidine-1-carboxamide] | 5.5 | ≤ 5 | ≤ 10 |
| CC1CC(N2CC(CC#N)(n3cc(-c4ncnc5[nH]ccc45)cn3)C2)CCN1Cc1c(F)cccc1Cl (stereo not shown) [Example 244, {1-[1-(2-chloro-6-fluorobenzyl)-2-methylpiperidin-4-yl]-3-[4-(7H-pyrrolo[2,3-d]pyrimidin-4-yl)-1H-pyrazol-1-yl]azetidin-3-yl}acetonitrile] | 1.8 |  |  |
| CC1CC(N2CC(CC#N)(n3cc(-c4ncnc5[nH]ccc45)cn3)C2)CCN1Cc1ccc(N(C)C)c(C#N)c1F (single isomer, unassigned) [Example 243, 3-[(4-{3-(cyanomethyl)-3-[4-(7H-pyrrolo[2,3-d]pyrimidin-4-yl)-1H-pyrazol-1-yl]azetidin-1-yl}-2-methylpiperidin-1-yl)methyl]-6-(dimethylamino)-2-fluorobenzonitrile] | 6.4 |  |  |
| CC1CC(N2CC(CC#N)(n3cc(-c4ncnc5[nH]ccc45)cn3)C2)CCN1Cc1c(F)cccc1Cl (stereo not shown) [Example 245, {1-[1-(2-chloro-6-fluorobenzyl)-2-methylpiperidin-4-yl]-3-[4-(7H-pyrrolo[2,3-d]pyrimidin-4-yl)-1H-pyrazol-1-yl]azetidin-3-yl}acetonitrile] | 1.5 |  |  |
| CC1CC(N2CC(CC#N)(n3cc(-c4ncnc5[nH]ccc45)cn3)C2)CCN1C(=O)c1cccc(F)c1 (single isomer, unassigned) [Example 149, {1-[1-(3-fluorobenzoyl)-2-methylpiperidin-4-yl]-3-[4-(7H-pyrrolo[2,3-d]pyrimidin-4-yl)-1H-pyrazol-1-yl]azetidin-3-yl}acetonitrile] | 5.0 | ≤ 5 |  |
| N#CCC1(n2cc(-c3ncnc4[nH]ccc34)cn2)CN(C2CCN(Cc3ccc(F)cc3F)CC2)C1 [Example 217, {1-[1-(2,4-difluorobenzyl)piperidin-4-yl]-3-[4-(7H-pyrrolo[2,3-d]pyrimidin-4-yl)-1H-pyrazol-1-yl]azetidin-3-yl}acetonitrile] | 5.8 |  |  |
| CC1CC(N2CC(CC#N)(n3cc(-c4ncnc5[nH]ccc45)cn3)C2)CCN1Cc1ccc(N(C)C)c(C#N)c1F (single isomer, unassigned) [Example 242, 3-[(4-{3-(cyanomethyl)-3-[4-(7H-pyrrolo[2,3-d]pyrimidin-4-yl)-1H-pyrazol-1-yl]azetidin-1-yl}-2-methylpiperidin-1-yl)methyl]-6-(dimethylamino)-2-fluorobenzonitrile] | 8.3 |  |  |
| N#CCC1(n2cc(-c3ncnc4[nH]ccc34)cn2)CN(C2CCN(C(=O)c3ccnc(C(F)(F)F)c3F)CC2)C1 [Example 1, {1-{1-[3-Fluoro-2-(trifluoromethyl)isonicotinoyl]piperidin-4-yl}-3-[4-(7H-pyrrolo[2,3-d]pyrimidin-4-yl)-1H-pyrazol-1-yl]azetidin-3-yl}acetonitrile] |  | ≤ 5 | > 100 |
| CC1CC(N2CC(CC#N)(n3cc(-c4ncnc5[nH]ccc45)cn3)C2)CCN1C(=O)c1cccc(F)c1 (single isomer, unassigned) [Example 150, {1-[1-(3-fluorobenzoyl)-2-methylpiperidin-4-yl]-3-[4-(7H-pyrrolo[2,3-d]pyrimidin-4-yl)-1H-pyrazol-1-yl]azetidin-3-yl}acetonitrile] | 7.0 | ≤ 5 |  |
| N#CCC1(n2cc(-c3ncnc4[nH]ccc34)cn2)CN(C2CC3CCC(C2)N3C(=O)c2ccnc(C(F)(F)F)c2)C1 (stereo not shown) [Example 144, (3-[4-(7H-pyrrolo[2,3-d]pyrimidin-4-yl)-1H-pyrazol-1-yl]-1-{8-[2-(trifluoromethyl)isonicotinoyl]-8-azabicyclo[3.2.1]oct-3-yl}azetidin-3-yl)acetonitrile] |  | 5 to 20 | 10 to 50 |
| N#CCC1(n2cc(-c3ncnc4[nH]ccc34)cn2)CN(C2CCN(C(=O)c3ccc(-c4cccc5cccnc45)c(F)c3)CC2)C1 [Example 132, {1-[1-(3-fluoro-4-quinolin-8-ylbenzoyl)piperidin-4-yl]-3-[4-(7H-pyrrolo[2,3-d]pyrimidin-4-yl)-1H-pyrazol-1-yl]azetidin-3-yl}acetonitrile] | 5.8 |  | ≤ 10 |
| N#CCC1(n2cc(-c3ncnc4[nH]ccc34)cn2)CN(C2CC3CCC(C2)N3C(=O)C2CCCC2)C1 (stereo not shown) [Example 145, {1-[8-(cyclopentylcarbonyl)-8-azabicyclo[3.2.1]oct-3-yl]-3-[4-(7H-pyrrolo[2,3-d]pyrimidin-4-yl)-1H-pyrazol-1-yl]azetidin-3-yl}acetonitrile] |  | 5 to 20 | 10 to 50 |
| [2H]C1(N2CC(CC#N)(n3cc(-c4ncnc5[nH]ccc45)cn3)C2)CCN(C(=O)c2ccnc(C(F)(F)F)c2F)CC1 [Example 363, {1-{1-[3-Fluoro-2-(trifluoromethyl)isonicotinoyl]-4-deuteropiperidin-4-yl}-3-[4-(7H-pyrrolo[2,3-d]pyrimidin-4-yl)-1H-pyrazol-1-yl]azetidin-3-yl}acetonitrile] |  | ≤ 5 | 50 to 100 |

Source: patent US9999619B2, “Piperidin-4-yl azetidine derivatives as JAK1 inhibitors” (Incyte Corporation, priority 2010, dated 2018)
